Reference: patent US20050106195A1, “N-octanoyl amino acid composition for slimming the human body” (priority 2003, published 2005)

System: human adipocytes
Assay: In vitro lipolytic activity: free fatty acid release from isolated human adipocytes in suspension
Type: cell-based
Details: 2 h at 37° C.; for Free fatty acid concentration: mean of five assays, control 11.54 ± 2.71
Description: This is because triglycerides are stored in the adipocytes and constitute the fat reserve. For this reserve to diminish, which is the desired aim when slimming products are used, the triglycerides must be hydrolysed so that the fatty acids can be removed from the cell. Hydrolysis of the triglycerides to nonesterified fatty acids and glycerol is called lipolysis.
The method described consists in incubating the products in the presence of human adipocytes in suspension, followed by the measurement of the nonesterified fatty acid level in the adipocyte incubation medium. The free fatty acid level thus reflects the hydrolysis of the triglycerides present in the adipocytes.
The test is carried out using human adipocytes isolated and prepared as a cellular suspension. The adipocytes are isolated from the subcutaneous abdominal adipose tissue recovered during plastic surgery operations (abdominal plastic surgery operations) performed on women. The cells are isolated from fresh tissue. The adipose tissue is isolated and dissociated by the action of a collagenase (SIGMA™, 1 mg/ml, 30 minutes at 37° C., gentle stirring). Collagenase digests the connective tissue present in the adipose tissue. After digestion, the cells are filtered and washed in an appropriate culture medium containing MEM medium free of phenol red, free of glutamine (SIGMA)+2.2 mg/ml of sodium bicarbonate (GIBCO)+50 IU of penicillin (BIOWHITTAKER™)+50 μg/ml of streptomycin (BIOWHITTAKER™)+1% (v/v) of L-glutamine (BIOWHITTAKER™)+0.5% of lipid-free serum albumin (SIGMA™). The adipocyte suspension is used immediately after its preparation.
The test products are diluted in the adipocyte culture medium. They are incubated with the cells in suspension for two hours at 37° C. (250 μl of product+250 μl of adipocyte suspension).
After the incubation, the cell lysis is checked visually by the presence of a lipid layer at the surface of the cellular suspension. The supernatant media are collected. The free fatty acids are assayed by spectrophotometry using a commercial kit (NEFA™ C kit, WAKO), with reference to a fatty acid calibration series. The lypolytic activity of the products is evaluated relative to a control group incubated in the presence of adipocytes and in the absence of product. The reactivity of the adipocytes is systematically checked for the measurement of the lipolytic activity of the reference products, caffeine (1,3,7-trimethyl-xanthine) and theophylline (1,3-dimethyl-2,6-dihydroxy-purine). Five assays are performed for each of the test products. The lipolytic activity of LIPACIDE™ C8G, which contains active material 100% N-octanoylglycine, was thus evaluated.

[1] = incubation concentration 0.0019 wt %/volume
[2] = incubation concentration 0.0001 wt %/volume
[3] = incubation concentration 0.0005 wt %/volume
[4] = incubation concentration 0.0010 wt %/volume

Compound	Lipolytic activity (compared with the control = 100) [1]	Free fatty acid concentration [1] [µM]	Lipolytic activity (compared with the control = 100) [2]	Free fatty acid concentration [2] [µM]	Lipolytic activity (compared with the control = 100) [3]	Free fatty acid concentration [3] [µM]	Lipolytic activity (compared with the control = 100) [4]	Free fatty acid concentration [4] [µM]
Cn1c(=O)c2c(ncn2C)n(C)c1=O [Caffeine, 1,3,7-trimethyl-xanthine, reference compound]	131	15.10 ± 4.11						
CCCCCCCC(=O)NCC(=O)O [LIPACIDE ™ C8G, N-octanoylglycine]			206	23.83 ± 5.11	219	25.30 ± 2.70	223	25.75 ± 0.86
